Where two headings read alike, the source gives them in different places. Marks after values point to notes of the source that are not given here. Starred links: 1 amine or outer side, 2 acyl side, 3 side chain; linkers in the order of their positions; H or OH if unused. Non-standard residues stand in square brackets, D forms with d. Residues, ends and D or L forms follow the SMILES beside them. Groups on a side chain read outwards from the residue. *: point of attachment. C18 diacid = O=C(O)CCCCCCCCCCCCCCCCC(=O)*; αMePhe(2-F) = C[C@](N)(Cc1ccccc1F)C(=O)O; γGlu = O=C(O)[C@H](CCC(=O)[*:2])N[*:1]; AEEA = NCCOCCOCC(=O)O; Aib = CC(C)(N)C(=O)O
What was measured:
GCGR = molecular target: T1, GCGR (Homo sapiens, UniProt P47871); assay: In vitro cell activity, cAMP production in HEK293 cells expressing GCGR; format: cell-based
T1 construct: expressed in transfected cells; host or cells: HEK293 (HEK293-GCGR)
T1 sequence (P47871 26-477, species assumed): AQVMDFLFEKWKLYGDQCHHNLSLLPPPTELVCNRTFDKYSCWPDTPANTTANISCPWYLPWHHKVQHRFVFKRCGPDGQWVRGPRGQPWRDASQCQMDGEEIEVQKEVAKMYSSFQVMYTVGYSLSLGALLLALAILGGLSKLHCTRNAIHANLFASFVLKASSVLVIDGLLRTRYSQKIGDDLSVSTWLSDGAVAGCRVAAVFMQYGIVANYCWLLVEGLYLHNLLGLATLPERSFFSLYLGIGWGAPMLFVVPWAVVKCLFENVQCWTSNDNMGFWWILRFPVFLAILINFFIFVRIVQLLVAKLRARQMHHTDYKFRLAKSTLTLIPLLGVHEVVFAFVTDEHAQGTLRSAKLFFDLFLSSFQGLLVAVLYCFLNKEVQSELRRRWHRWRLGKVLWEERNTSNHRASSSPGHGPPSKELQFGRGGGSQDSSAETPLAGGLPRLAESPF
Summary of the method: (§1)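 Cells were plated at 4×10^5 cells/mL, and detection reagents (cAMP-d2, anti-cAMP cryptate, 1:1) were incubated 1 h at room temperature in the dark or overnight at 4 °C.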

GLP-1R = molecular target: T2, GLP-1R (Homo sapiens, UniProt P43220); assay: In vitro cell activity, cAMP production in HEK293 cells expressing GLP-1R; format: cell-based
T2 construct: expressed in transfected cells; host or cells: HEK293 (HEK293-GLP-1R)
T2 sequence (P43220 24-463, species assumed): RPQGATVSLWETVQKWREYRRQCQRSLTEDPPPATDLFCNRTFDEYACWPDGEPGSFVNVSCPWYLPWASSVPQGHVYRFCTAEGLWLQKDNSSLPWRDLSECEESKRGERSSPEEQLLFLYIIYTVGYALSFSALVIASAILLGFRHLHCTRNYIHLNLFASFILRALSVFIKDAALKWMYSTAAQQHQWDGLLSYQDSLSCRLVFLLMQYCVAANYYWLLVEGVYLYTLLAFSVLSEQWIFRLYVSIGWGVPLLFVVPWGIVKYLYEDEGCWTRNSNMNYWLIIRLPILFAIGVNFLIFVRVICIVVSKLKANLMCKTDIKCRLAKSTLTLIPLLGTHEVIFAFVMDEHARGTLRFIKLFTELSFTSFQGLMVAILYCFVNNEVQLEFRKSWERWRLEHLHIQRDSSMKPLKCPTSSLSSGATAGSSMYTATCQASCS
Summary of the method: as §1

[1] = Pharmacokinetic study in rats, single subcutaneous injection; settings: male, Sprague Dawley, in vivo, sc, rat
Experimental: The pharmacokinetic study of each polypeptide compound prepared in Example 1 was conducted using male Sprague Dawley rats. There were 3 male rats in each group. […] The dose was 50 nmol/kg, and a single subcutaneous injection was given (see Table 3 for specific peptide compounds). After administration, plasma was collected on the specified days and time points, and the concentration of each peptide compound in the plasma was detected by LC-MS/MS method. The pharmacokinetic parameters were obtained based on the concentration data, which were used to describe the pharmacokinetic properties of the peptide in rats after subcutaneous injection. Table 3: Summary of pharmacokinetic parameters of some triple-target peptides in rats

GIPR = molecular target: T3, GIPR (Homo sapiens, UniProt P48546); assay: In vitro cell activity, cAMP production in HEK293 cells expressing GIPR; format: cell-based
T3 construct: expressed in transfected cells; host or cells: HEK293 (HEK293-GIPR)
T3 sequence (P48546 22-466): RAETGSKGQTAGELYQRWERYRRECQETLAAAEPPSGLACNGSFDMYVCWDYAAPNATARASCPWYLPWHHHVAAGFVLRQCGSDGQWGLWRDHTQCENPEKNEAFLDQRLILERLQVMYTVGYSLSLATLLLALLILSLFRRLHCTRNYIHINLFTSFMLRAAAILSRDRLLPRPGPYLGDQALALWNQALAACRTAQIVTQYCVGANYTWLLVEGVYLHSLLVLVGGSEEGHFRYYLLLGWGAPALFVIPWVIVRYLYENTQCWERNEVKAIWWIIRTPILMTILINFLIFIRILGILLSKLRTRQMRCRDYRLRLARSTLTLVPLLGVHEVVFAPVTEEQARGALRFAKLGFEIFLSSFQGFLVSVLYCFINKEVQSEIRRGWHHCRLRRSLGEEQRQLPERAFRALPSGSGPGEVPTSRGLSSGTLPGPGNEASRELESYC
Summary of the method: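 cAMP accumulation is quantified by homogeneous TR-FRET (cAMP-d2 plus anti-cAMP cryptate) in GIPR-expressing HEK293 cells seeded from a 4×10^5 cells/mL suspension and treated with compound. The signal ratio is plotted against concentration and fitted to a four-parameter curve to give EC50.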

[2] = Glucose tolerance assessment in normal C57BL/6 mice (Example 5); format: in vivo; settings: for Blood glucose level (mM) 15 min / Blood glucose level (mM) 30 min / Blood glucose level (mM) 60 min / Blood glucose level (mM) 90 min / Blood glucose level (mM) 0 min / AUC0-90 min: 3 nmol/kg s.c. single dose, 24 h after administration; for Blood glucose level (mM) 15 min: 15 min after 2 g/kg glucose i.p.; for Blood glucose level (mM) 30 min: 30 min after 2 g/kg glucose i.p.; for Blood glucose level (mM) 60 min: 60 min after 2 g/kg glucose i.p.; for Blood glucose level (mM) 90 min: 90 min after 2 g/kg glucose i.p.; for Blood glucose level (mM) 0 min: basal before 2 g/kg glucose i.p.; for AUC0-90 min: blood glucose AUC, 2 g/kg glucose i.p.
Summary of the method: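 Normal C57BL/6 mice given a single dose, fasted 12 h starting 12 h post-dose, then challenged with 2 g/kg glucose i.p. Tail-vein glucose measured at baseline and 15, 30, 60, 90 min. AUC0~90min calculated from the glucose–time curve per dose group.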

[3] = Glucose tolerance assessment in normal C57BL/6 mice (Example 4); format: in vivo
Summary of the method: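 Twelve hours after a single administration, mice were fasted 12 h and then given 2 g/kg glucose i.p. Tail-vein blood glucose was measured at baseline and at 15, 30, 60 and 90 min. AUC0–90min was calculated per dose group at 24 h post-dose.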

[4] = 50 nmol/kg single subcutaneous injection, plasma
[5] = 50 nmol/kg single subcutaneous injection, plasma, read-out: T1/2 (converted)
[6] = 50 nmol/kg single subcutaneous injection, plasma, read-out: Tmax
[7] = 24 hours after a single administration, 3 nmol/kg

SMILES	EC50 (GCGR)	EC50 (GLP-1R)	AUC(0-inf) [1, 4]	AUC(0-t) [1, 4]	Cmax [1, 4]	half-life [1, 5]	Tmax [1, 6]	EC50 (GIPR)	Blood glucose level (mM) 15 min [2]	Blood glucose level (mM) 30 min [2]	Blood glucose level (mM) 60 min [2]	Blood glucose level (mM) 90 min [2]	Blood glucose level (mM) 0 min [2]	AUC0-90 min [2]	further results
CC[C@H](C)[C@H](NC(=O)[C@H](CCCCN)NC(=O)[C@H](CC(=O)O)NC(=O)[C@H](CCCCNC(=O)COCCOCCNC(=O)CC[C@H](NC(=O)CCCCCCCCCCCCCCCCC(=O)O)C(=O)O)NC(=O)[C@H](CC(C)C)NC(=O)[C@@H](NC(=O)[C@H](CO)NC(=O)[C@H](Cc1ccc(O)cc1)NC(=O)[C@H](CC(=O)O)NC(=O)[C@H](CO)NC(=O)[C@@H](NC(=O)[C@](C)(Cc1ccccc1F)NC(=O)[C@@H](NC(=O)CNC(=O)[C@H](CCC(N)=O)NC(=O)C(C)(C)NC(=O)[C@@H](N)Cc1ccc(O)cc1)[C@@H](C)O)[C@@H](C)O)[C@@H](C)CC)C(=O)N[C@@H](C)C(=O)N[C@@H](CCC(N)=O)C(=O)N[C@@H](CCC(N)=O)C(=O)N[C@@H](C)C(=O)N[C@@H](Cc1ccccc1)C(=O)N[C@H](C(=O)N[C@@H](CCC(=O)O)C(=O)N[C@@H](Cc1ccc(O)cc1)C(=O)N[C@@H](CC(C)C)C(=O)N[C@@H](CC(C)C)C(=O)N[C@@H](CCC(=O)O)C(=O)NCC(=O)NCC(=O)N1CCC[C@H]1C(=O)N[C@@H](CO)C(=O)N[C@@H](CO)C(=O)NCC(=O)N[C@@H](C)C(=O)N1CCC[C@H]1C(=O)N1CCC[C@H]1C(=O)N1CCC[C@H]1C(=O)N[C@@H](CO)C(N)=O)[C@@H](C)CC [HEC-PT113] (H-Y[Aib]QGT[αMePhe(2-F)]TSDYSILK([AEEA-γGlu-C18 diacid])DKIAQQAFIEYLLEGGPSSGAPPPS-NH2)	0.171 nM	0.103 nM	27900 ± 4180 ng·h/mL	27700 ± 4110 ng·h/mL	714 ± 63.2 ng/mL	11 ± 0.62 h	13 ± 9.9 h	0.0188 nM	12.6 ± 1.7 mM	8.0 ± 1.0 mM	7.9 ± 1.3 mM	6.7 ± 0.8 mM	4.6 ± 0.9 mM	743.5±48.5^a	improvement of glucose tolerance compared with LY3298176 [2, 7]: improved glucose tolerance in mice better than the positive control LY3298176
CC[C@H](C)[C@H](NC(=O)[C@H](Cc1ccccc1)NC(=O)[C@H](CCC(=O)O)NC(=O)[C@H](CCCNC(=N)N)NC(=O)[C@H](CCC(N)=O)NC(=O)[C@H](CCCNC(=N)N)NC(=O)[C@H](CCCCNC(=O)COCCOCCNC(=O)CC[C@H](NC(=O)CCCCCCCCCCCCCCCCCCC(=O)O)C(=O)O)NC(=O)[C@H](CCC(=O)O)NC(=O)[C@H](CC(=O)O)NC(=O)[C@H](CC(C)C)NC(=O)[C@H](CC(C)C)NC(=O)[C@@H](NC(=O)[C@H](CO)NC(=O)[C@H](Cc1ccc(O)cc1)NC(=O)[C@H](CC(=O)O)NC(=O)[C@H](CO)NC(=O)[C@@H](NC(=O)[C@](C)(Cc1ccccc1F)NC(=O)[C@@H](NC(=O)CNC(=O)[C@H](Cc1c[nH]cn1)NC(=O)C(C)(C)NC(=O)[C@@H](N)Cc1ccc(O)cc1)[C@@H](C)O)[C@@H](C)O)[C@@H](C)CC)C(=O)N[C@@H](CCC(=O)O)C(=O)N[C@@H](Cc1c[nH]c2ccccc12)C(=O)N[C@@H](CC(C)C)C(=O)N[C@@H](CC(C)C)C(=O)N[C@@H](C)C(=O)NCC(=O)NCC(=O)N1CCC[C@H]1C(=O)N[C@@H](CO)C(=O)N[C@@H](CO)C(=O)NCC(=O)N[C@@H](C)C(=O)N1CCC[C@H]1C(=O)N1CCC[C@H]1C(=O)N1CCC[C@H]1C(=O)N[C@@H](CO)C(=O)O [HEC-PT96]	0.192 nM	0.158 nM	40900 ± 1990 ng·h/mL	40300 ± 1930 ng·h/mL	840 ± 41.4 ng/mL	17 ± 0.65 h	25 ± 2.3 h	0.149 nM	13.0 ± 2.9 mM	10.8 ± 3.2 mM	7.9 ± 1.6 mM	6.2 ± 1.3 mM	4.2 ± 0.6 mM	798.9±146.0^a	
CC[C@H](C)[C@H](NC(=O)[C@H](Cc1ccccc1)NC(=O)[C@H](C)NC(=O)[C@H](CCC(N)=O)NC(=O)[C@H](CCC(N)=O)NC(=O)[C@H](CCCNC(=N)N)NC(=O)[C@H](CCCCNC(=O)COCCOCCNC(=O)CC[C@H](NC(=O)CCCCCCCCCCCCCCCCCCC(=O)O)C(=O)O)NC(=O)[C@H](CCC(=O)O)NC(=O)[C@H](CC(=O)O)NC(=O)[C@H](CC(C)C)NC(=O)[C@H](CC(C)C)NC(=O)[C@@H](NC(=O)[C@H](CO)NC(=O)[C@H](Cc1ccc(O)cc1)NC(=O)[C@H](CC(=O)O)NC(=O)[C@H](CO)NC(=O)[C@@H](NC(=O)[C@](C)(Cc1ccccc1F)NC(=O)[C@@H](NC(=O)CNC(=O)[C@H](Cc1c[nH]cn1)NC(=O)C(C)(C)NC(=O)[C@@H](N)Cc1ccc(O)cc1)[C@@H](C)O)[C@@H](C)O)[C@@H](C)CC)C(=O)N[C@@H](CCC(=O)O)C(=O)N[C@@H](Cc1ccc(O)cc1)C(=O)N[C@@H](CC(C)C)C(=O)N[C@@H](CC(C)C)C(=O)N[C@@H](CCC(=O)O)C(=O)NCC(=O)NCC(=O)N1CCC[C@H]1C(=O)N[C@@H](CO)C(=O)N[C@@H](CO)C(=O)NCC(=O)N[C@@H](C)C(=O)N1CCC[C@H]1C(=O)N1CCC[C@H]1C(=O)N1CCC[C@H]1C(=O)N[C@@H](CO)C(=O)O [HEC-PT93]															EC50 (GCGR; HEK293-GCGR cells, cAMP, read-out: GCGR (EC50)): 0.354 nM; EC50 (GLP-1R; HEK293-GLP-1R cells, cAMP, read-out: GLP-1R (EC50)): 1.17 nM; Tmax [1]: 25 ± 2.3 h; half-life ([1]; 50 nmol/kg): 19 ± 1.2 h; EC50 (GIPR; HEK293-GIPR cells, cAMP, read-out: GIPR (EC50)): 0.159 nM
CC[C@H](C)[C@H](NC(=O)[C@H](Cc1ccccc1)NC(=O)[C@H](C)NC(=O)[C@H](CCC(N)=O)NC(=O)[C@H](CCC(N)=O)NC(=O)[C@H](CCCNC(=N)N)NC(=O)[C@H](CCCCNC(=O)COCCOCCNC(=O)CC[C@H](NC(=O)CCCCCCCCCCCCCCCCC(=O)O)C(=O)O)NC(=O)[C@H](CCC(=O)O)NC(=O)[C@H](CC(=O)O)NC(=O)[C@H](CC(C)C)NC(=O)[C@H](CC(C)C)NC(=O)[C@@H](NC(=O)[C@H](CO)NC(=O)[C@H](Cc1ccc(O)cc1)NC(=O)[C@H](CC(=O)O)NC(=O)[C@H](CO)NC(=O)[C@@H](NC(=O)[C@](C)(Cc1ccccc1F)NC(=O)[C@@H](NC(=O)CNC(=O)[C@H](CCC(N)=O)NC(=O)C(C)(C)NC(=O)[C@@H](N)Cc1ccc(O)cc1)[C@@H](C)O)[C@@H](C)O)[C@@H](C)CC)C(=O)N[C@@H](CCC(=O)O)C(=O)N[C@@H](Cc1ccc(O)cc1)C(=O)N[C@@H](CC(C)C)C(=O)N[C@@H](CC(C)C)C(=O)N[C@@H](CCC(=O)O)C(=O)NCC(=O)NCC(=O)N1CCC[C@H]1C(=O)N[C@@H](CO)C(=O)N[C@@H](CO)C(=O)NCC(=O)N[C@@H](C)C(=O)N1CCC[C@H]1C(=O)N1CCC[C@H]1C(=O)N1CCC[C@H]1C(=O)N[C@@H](CO)C(=O)O [HEC-PT82]	0.615 nM	0.36 nM	29400 ± 3050 ng·h/mL	29100 ± 3030 ng·h/mL	836 ± 217 ng/mL	17 ± 0.8 h	8.7 ± 2.3 h	0.0831 nM							Blood glucose level (mM) 15 min ([3]; 3 nmol/kg s.c. single dose, 24 h after administration, 15 min after 2 g/kg glucose i.p.): 12.4 ± 4.3 mM; Blood glucose level (mM) 30 min ([3]; 3 nmol/kg s.c. single dose, 24 h after administration, 30 min after 2 g/kg glucose i.p.): 7.6 ± 1.5 mM; Blood glucose level (mM) 60 min ([3]; 3 nmol/kg s.c. single dose, 24 h after administration, 60 min after 2 g/kg glucose i.p.): 6.9 ± 0.8 mM; Blood glucose level (mM) 90 min ([3]; 3 nmol/kg s.c. single dose, 24 h after administration, 90 min after 2 g/kg glucose i.p.): 6.6 ± 0.6 mM; Blood glucose level (mM) 0 min ([3]; 3 nmol/kg s.c. single dose, 24 h after administration, basal before 2 g/kg glucose i.p.): 3.8 ± 0.6 mM; improvement of glucose tolerance compared with LY3298176 [3, 7]: more effective in improving glucose tolerance than the positive control LY3298176; AUC0-90 min ([3]; blood glucose AUC, 3 nmol/kg s.c. single dose, 24 h after administration, 2 g/kg glucose i.p.): 691.8±116.4^a

Reference: patent EP4596574A1, “GLP-1/GCG/GIP TRIPLE-RECEPTOR AGONIST AND USE THEREOF” (Sunshine Lake Pharma Co., Ltd., priority 2022, dated 2024)
